In patent publication US8299056B2 (Signal Pharmaceuticals, LLC, priority 2008, dated 2012):
Read-outs that look alike come from different tables or passages of the source.

Target: T1, Syk (Homo sapiens, UniProt P43405)
T1 construct: purchased Carna Biosciences
Test: Syk HTRF assay
Assay type: biochemical
Summary of the method: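 Read-out is the 665 nm/615 nm time-resolved fluorescence ratio after EDTA stop and Eu-anti-phosphotyrosine plus streptavidin-DyLight 647 detection. Reaction ran 1 h at room temperature with start mix of 87.5 μM ATP and 80 nM substrate peptide in pH 7.6 HEPES/MgCl2 buffer.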

[1] = IC50 activity level, read-out: Activity Level
[2] = activity levels A-D, read-out: Activity Level (IC50 in the Syk HTRF assay)
[3] = read-out: Activity Level (Syk HTRF assay IC50)

Row | IC50 [1] [nM] | IC50 [3] [nM] | SMILES | further results
1 | 0.005 to 250 | – | CN(C)c1cccc2nc(Nc3ccc4c(c3)NC(=O)C4(C)C)nn12 [Example 566, 6-(5-(dimethylamino)-[1,2,4]triazolo[1,5-a]pyridin-2-ylamino)-3,3-dimethylindolin-2-one] | –
2 | – | – | Cc1ccc(Nc2nc3cccc(-c4ccc5nc(CO)[nH]c5c4)n3n2)cn1 [Example 285, (6-(2-(6-methylpyridin-3-ylamino)-[1,2,4]triazolo[1,5-a]pyridin-5-yl)-1H-benzo[d]imidazol-2-yl)methanol] | IC50 [2]: 0.005 to 250 nM
3 | – | – | OC[C@H]1CCCN1c1cccc2nc(Nc3ccc(C(F)(F)F)cc3)nn12 [Example 288, (R)-(1-(2-(4-(trifluoromethyl)phenylamino)-[1,2,4]triazolo[1,5-a]pyridin-5-yl)pyrrolidin-2-yl)methanol] | IC50 [2]: 250 to 500 nM
4 | – | 1000 to 10000 | CN1C(=O)Cc2ccc(Nc3nc4cccc(CC5CCOCC5)n4n3)cc21 [compound 118, 1-methyl-6-(5-((tetrahydro-2H-pyran-4-yl)methyl)-[1,2,4]triazolo[1,5-a]pyridin-2-ylamino)indolin-2-one] | –
5 | – | 1000 to 10000 | CNC(=O)c1ccc(Nc2nc3cccc(-c4cccc(C(=O)O)c4)n3n2)cc1 [compound 30, 3-(2-(4-(methylcarbamoyl)phenylamino)-[1,2,4]triazolo[1,5-a]pyridin-5-yl)benzoic acid] | –
6 | – | – | CC(C)(O)[C@H]1CC[C@@H](Nc2cccc3nc(Nc4ccc(C(F)(F)F)cc4)nn23)CC1 [Example 385, cis-2-(4-(2-(4-(trifluoromethyl)phenylamino)-[1,2,4]triazolo[1,5-a]pyridin-5-ylamino)cyclohexyl)propan-2-ol] | IC50 [2]: 500 to 1000 nM
7 | – | – | CC(C)(O)c1ccc(Nc2nc3cccc(N[C@H]4CC[C@@H](O)CC4)n3n2)cn1 [Example 359, cis-4-(2-(6-(2-hydroxypropan-2-yl)pyridin-3-ylamino)-[1,2,4]triazolo[1,5-a]pyridin-5-ylamino)cyclohexanol] | IC50 [2]: 1000 to 10000 nM
8 | 500 to 1000 | – | CCN1CCC(Cc2cccc3nc(Nc4ccc(C(F)(F)F)cc4)nn23)CC1 [Example 407, 5-((1-ethylpiperidin-4-yl)methyl)-N-(4-(trifluoromethyl)phenyl)-[1,2,4]triazolo[1,5-a]pyridin-2-amine] | –
9 | – | 0.005 to 250 | Cn1cnc2ccc(Nc3nc4cccc(-c5cccc(F)c5)n4n3)cc21 [compound 4] | –
10 | 500 to 1000 | – | N[C@H]1CC[C@@H](Oc2cccc3nc(Nc4ccc(C(F)(F)F)cc4)nn23)CC1 [Example 423, cis-5-(4-aminocyclohexyloxy)-N-(4-(trifluoromethyl)phenyl)-[1,2,4]triazolo[1,5-a]pyridin-2-amine] | –
11 | – | – | FC(F)(F)c1ccc(Nc2nc3cccc(OC4CCNCC4)n3n2)cc1 [Example 352, 5-(piperidin-4-yloxy)-N-(4-(trifluoromethyl)phenyl)-[1,2,4]triazolo[1,5-a]pyridin-2-amine] | IC50 [2]: 1000 to 10000 nM
12 | 0.005 to 250 | – | Cc1ccc(Nc2nc3cccc(N[C@H]4CC[C@@H](O)CC4)n3n2)cn1 [Example 403, cis-4-(2-(6-methylpyridin-3-ylamino)-[1,2,4]triazolo[1,5-a]pyridin-5-ylamino)cyclohexanol] | –
13 | – | 0.005 to 250 | COCc1nc2ccc(Nc3nc4cccc(N[C@H]5CC[C@@H](O)CC5)n4n3)cc2[nH]1 [Example 196, cis-4-(2-(2-(methoxymethyl)-1H-benzo[d]imidazol-6-ylamino)-[1,2,4]triazolo[1,5-a]pyridin-5-ylamino)cyclohexyl] | –
14 | – | – | Oc1cc(Nc2nc3cccc(N[C@H]4CC[C@@H](O)CC4)n3n2)ccn1 [Example 331, cis-4-(5-(4-hydroxycyclohexylamino)-[1,2,4]triazolo[1,5-a]pyridin-2-ylamino)pyridin-2-ol] | IC50 [2]: 1000 to 10000 nM
15 | – | 0.005 to 250 | O=C1NCc2cc(Nc3nc4cccc(Cc5ccnc(O)c5)n4n3)ccc21 [Example 157, 5-(5-((2-hydroxypyridin-4-yl)methyl)-[1,2,4]triazolo[1,5-a]pyridin-2-ylamino)isoindolin-1-one] | –
16 | 1000 to 10000 | – | c1cc(NC2CCCNC2)n2nc(Nc3ccc4c(c3)CNC4)nc2c1 (stereo in doubt) [Example 448, (R)-N^2-(isoindolin-5-yl)-N^5-(piperidin-3-yl)-[1,2,4]triazolo[1,5-a]pyridin-2,5-diamine] | –
17 | – | 0.005 to 250 | Cn1ncc2cc(Nc3nc4cccc(N[C@H]5CC[C@@H](O)CC5)n4n3)cnc21 [Example 139, cis-4-(2-(1-methyl-1H-pyrazolo[3,4-b]pyridin-5-ylamino)-[1,2,4]triazolo[1,5-a]pyridin-5-ylamino)cyclohexanol] | –
18 | 0.005 to 250 | – | CNc1nc2cc(-c3cccc4nc(Nc5ccccc5)nn34)ccc2[nH]1 [Example 481, 5-(2-(methylamino)-1H-benzo[d]imidazol-5-yl)-N-phenyl-[1,2,4]triazolo[1,5-a]pyridin-2-amine] | –
19 | – | – | CNC(=O)c1ccc(Nc2nc3cccc(C[C@H]4CC[C@@H](O)C4)n3n2)cc1 (single isomer, unassigned; diastereomer 2) [Example 214, 4-(5-((3-hydroxycyclopentyl)methyl)-[1,2,4]triazolo[1,5-a]pyrridin-2-ylamino)-N-methylbenzamide (diastereomer 2)] | IC50 [2]: 1000 to 10000 nM
20 | – | 0.005 to 250 | CC1(C)C(=O)Nc2cc(Nc3nc4cccc(N[C@H]5CC[C@](C)(O)CC5)n4n3)ccc21 [Example 162, trans-6-(5-(4-hydroxy-4-methylcyclohexylamino)-[1,2,4]triazolo[1,5-a]pyridin-2-ylamino)-3,3-dimethylindolin-2-one] | –
21 | 250 to 500 | – | CC(CO)Cc1cccc2nc(Nc3ccccc3)nn12 (stereo in doubt) [Example 480, (S)-2-methyl-3-(2-(phenylamino)-[1,2,4]triazolo[1,5-a]pyridin-5-yl)propan-1-ol] | –
22 | 250 to 500 | – | OC(c1cccc2nc(Nc3ccccc3)nn12)C1CCNCC1 (centres unmarked) [Example 502, (2-(phenylamino)-[1,2,4]triazolo[1,5-a]pyridin-5-yl)(piperidin-4-yl)methanol] | –
23 | – | 0.005 to 250 | Fc1cccc(-c2cccc3nc(Nc4ccc5[nH]ncc5c4)nn23)c1 [compound 2, 5-(3-fluorophenyl)-N-(1H-indazol-5-yl)-[1,2,4]triazolo[1,5-a]pyridin-2-amine] | –
24 | 0.005 to 250 | – | CNCc1nc2cc(-c3cccc4nc(Nc5ccccc5)nn34)ccc2[nH]1 [Example 487, 5-(2-((methylamino)methyl)-1H-benzo[d]imidazol-5-yl)-N-phenyl-[1,2,4]triazolo[1,5-a]pyridin-2-amine] | –
25 | 500 to 1000 | – | COc1cc(-c2cccc3nc(Nc4ccccc4)nn23)ccn1 [Example 521] | –
26 | – | 0.005 to 250 | Cc1cc(Nc2nc3cccc(NC4CCOCC4)n3n2)cc2[nH]nc(C)c12 [compound 108] | –
27 | – | 0.005 to 250 | Oc1cccc(-c2cccc3nc(Nc4ccc(-c5ncc[nH]5)cc4)nn23)c1 [compound 16, 3-(2-(4-(1H-imidazol-2-yl)phenylamino)-[1,2,4]triazolo[1,5-a]pyridin-5-yl)phenol] | –
28 | – | 1000 to 10000 | COc1ccc(Nc2nc3cccc(-c4ccccc4)n3n2)cn1 [compound 71, N-(6-methoxypyridin-3-yl)-5-phenyl-[1,2,4]triazolo[1,5-a]pyridin-2-amine] | –
29 | – | 500 to 1000 | CC1(C)NC(=O)c2cc(Nc3nc4cccc(NC5CCOCC5)n4n3)ccc21 [compound 128, 3,3-dimethyl-6-(5-(tetrahydro-2H-pyran-4-ylamino)-[1,2,4]triazolo[1,5-a]pyridin-2-ylamino)isoindolin-1-one] | –
